Experimental data reported in ChEMBL document CHEMBL4842385, “Indirubin Derivatives as Dual Inhibitors Targeting Cyclin-Dependent Kinase and Histone Deacetylase for Treating Cancer” (J Med Chem, 2021).

Experiments:
Histone deacetylase 1 = Histone deacetylase 1 (Homo sapiens, UniProt Q13547); assay: Inhibition of HDAC1 (unknown origin) measured after 30 mins by fluorescence microplate reader assay
Histone deacetylase 2 = Histone deacetylase 2 (Homo sapiens, UniProt Q92769); assay: Inhibition of HDAC2 (unknown origin) measured after 30 mins by fluorescence microplate reader assay
Histone deacetylase 4 = Histone deacetylase 4 (Homo sapiens, UniProt P56524); assay: Inhibition of HDAC4 (unknown origin) measured after 30 mins by fluorescence microplate reader assay
Histone deacetylase 7 = molecular target: T1, Histone deacetylase 7 (Homo sapiens, UniProt Q8WUI4); assay: Inhibition of HDAC7 (unknown origin) measured after 30 mins by fluorescence microplate reader assay
T1 sequence (Q8WUI4 whole entry): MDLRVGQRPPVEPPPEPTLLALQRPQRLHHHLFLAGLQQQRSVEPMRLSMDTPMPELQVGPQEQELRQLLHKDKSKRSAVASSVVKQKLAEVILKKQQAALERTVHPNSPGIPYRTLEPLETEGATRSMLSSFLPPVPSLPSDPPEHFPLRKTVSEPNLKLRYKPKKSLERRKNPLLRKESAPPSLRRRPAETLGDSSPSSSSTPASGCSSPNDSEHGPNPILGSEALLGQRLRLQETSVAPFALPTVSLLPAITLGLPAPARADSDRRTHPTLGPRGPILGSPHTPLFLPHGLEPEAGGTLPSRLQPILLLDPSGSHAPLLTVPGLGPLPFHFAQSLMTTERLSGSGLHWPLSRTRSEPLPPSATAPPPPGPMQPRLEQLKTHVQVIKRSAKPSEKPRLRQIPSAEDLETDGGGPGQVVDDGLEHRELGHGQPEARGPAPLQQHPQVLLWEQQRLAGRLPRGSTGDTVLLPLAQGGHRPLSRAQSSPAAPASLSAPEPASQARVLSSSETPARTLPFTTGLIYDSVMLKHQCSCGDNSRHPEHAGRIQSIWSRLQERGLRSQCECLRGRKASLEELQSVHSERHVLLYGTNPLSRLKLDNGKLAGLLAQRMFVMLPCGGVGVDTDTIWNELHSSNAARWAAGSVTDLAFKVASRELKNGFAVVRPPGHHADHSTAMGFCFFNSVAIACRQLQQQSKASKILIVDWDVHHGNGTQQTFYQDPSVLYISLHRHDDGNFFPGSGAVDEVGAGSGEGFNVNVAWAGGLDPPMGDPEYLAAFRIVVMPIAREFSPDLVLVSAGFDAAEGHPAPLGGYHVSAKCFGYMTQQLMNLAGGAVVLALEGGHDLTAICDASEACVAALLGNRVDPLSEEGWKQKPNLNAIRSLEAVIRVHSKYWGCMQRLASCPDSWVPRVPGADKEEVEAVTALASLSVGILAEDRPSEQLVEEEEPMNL

Histone deacetylase 8 = molecular target: T2, Histone deacetylase 8 (Homo sapiens, UniProt Q9BY41); assay: Inhibition of HDAC8 (unknown origin) measured after 30 mins by fluorescence microplate reader assay
T2 sequence (Q9BY41 whole entry): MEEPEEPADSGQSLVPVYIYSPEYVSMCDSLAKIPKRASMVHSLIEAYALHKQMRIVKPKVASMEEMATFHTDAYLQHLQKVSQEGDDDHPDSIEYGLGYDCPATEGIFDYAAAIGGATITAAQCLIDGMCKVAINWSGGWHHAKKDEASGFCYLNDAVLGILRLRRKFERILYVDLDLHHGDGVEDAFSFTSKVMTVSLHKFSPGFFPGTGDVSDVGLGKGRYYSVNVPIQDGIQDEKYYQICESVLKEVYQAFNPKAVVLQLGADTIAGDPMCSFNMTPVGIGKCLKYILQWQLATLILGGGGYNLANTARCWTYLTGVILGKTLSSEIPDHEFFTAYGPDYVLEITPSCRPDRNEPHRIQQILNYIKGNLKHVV

CDK2/Cyclin A2 = CDK2/Cyclin A2 (Homo sapiens, UniProt P24941); assay: Inhibition of full length human CDK2 (1 to 298 end residues)/N-terminal GST-tagged CyclinA2 (1 to 432 residues) expressed in baculovirus expression system preincubated for 10 mins followed by substrate and ATP addition by mobility shift assay
CDK6/cyclin D3 = CDK6/cyclin D3 (Homo sapiens, UniProt Q00534); assay: Inhibition of full length human CDK6 (1 to 326 end residues)/N-terminal GST-fusion tagged CyclinD3 (1 to 292 residues) expressed in baculovirus expression system preincubated for 10 mins followed by substrate and ATP addition by mobility shift assay
[1] = molecular target: CDK2/Cyclin A2 (Homo sapiens) (UniProt P24941+P20248); settings: dose 100.0 nM, time 10.0 min
[2] = molecular target: CDK6/cyclin D3 (Homo sapiens) (UniProt P30281+Q00534); settings: dose 100.0 nM, time 10.0 min
[3] = molecular target: Histone deacetylase (Homo sapiens) (UniProt Q13547+O15379+Q9UBN7+Q92769+Q9UQL6+Q8WUI4+Q9BY41+Q96DB2+P56524+Q9UKV0+Q969S8); settings: HeLa, Nucleus, dose 1000.0 nM, time 1.0 hrs

Sequence of Histone deacetylase 1 (Q13547 whole entry): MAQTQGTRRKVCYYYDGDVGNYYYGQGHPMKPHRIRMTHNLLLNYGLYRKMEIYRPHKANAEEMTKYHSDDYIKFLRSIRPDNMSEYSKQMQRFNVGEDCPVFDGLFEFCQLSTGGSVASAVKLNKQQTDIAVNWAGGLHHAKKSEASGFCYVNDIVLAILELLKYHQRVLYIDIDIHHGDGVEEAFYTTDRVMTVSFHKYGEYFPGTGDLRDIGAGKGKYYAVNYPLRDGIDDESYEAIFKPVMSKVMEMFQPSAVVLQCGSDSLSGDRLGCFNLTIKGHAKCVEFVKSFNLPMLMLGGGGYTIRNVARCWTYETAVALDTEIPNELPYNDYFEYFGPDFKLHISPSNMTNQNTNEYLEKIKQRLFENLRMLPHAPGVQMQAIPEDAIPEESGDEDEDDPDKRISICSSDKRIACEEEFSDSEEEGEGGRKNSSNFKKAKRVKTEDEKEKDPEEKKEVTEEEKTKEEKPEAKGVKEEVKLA
Sequence of CDK6/cyclin D3 (P30281 whole entry, the tested form may be a part): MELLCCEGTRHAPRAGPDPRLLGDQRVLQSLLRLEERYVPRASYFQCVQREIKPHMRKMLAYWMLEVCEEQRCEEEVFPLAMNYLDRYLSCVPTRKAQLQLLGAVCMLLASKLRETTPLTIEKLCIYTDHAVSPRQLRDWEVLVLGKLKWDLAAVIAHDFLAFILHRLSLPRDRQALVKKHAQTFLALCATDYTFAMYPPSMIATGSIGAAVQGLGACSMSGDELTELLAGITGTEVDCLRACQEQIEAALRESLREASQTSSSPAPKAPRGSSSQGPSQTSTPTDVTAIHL
Sequence of CDK6/cyclin D3 (Q00534 whole entry, the tested form may be a part): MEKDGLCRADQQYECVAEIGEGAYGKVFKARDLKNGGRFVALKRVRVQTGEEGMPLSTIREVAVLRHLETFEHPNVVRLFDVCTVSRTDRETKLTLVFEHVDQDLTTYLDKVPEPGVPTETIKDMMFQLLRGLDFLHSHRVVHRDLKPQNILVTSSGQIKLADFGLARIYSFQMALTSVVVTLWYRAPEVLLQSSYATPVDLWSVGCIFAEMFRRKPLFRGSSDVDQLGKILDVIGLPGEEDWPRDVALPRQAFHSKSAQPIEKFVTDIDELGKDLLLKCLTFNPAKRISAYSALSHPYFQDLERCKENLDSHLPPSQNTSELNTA
Sequence of Histone deacetylase 2 (Q92769 whole entry): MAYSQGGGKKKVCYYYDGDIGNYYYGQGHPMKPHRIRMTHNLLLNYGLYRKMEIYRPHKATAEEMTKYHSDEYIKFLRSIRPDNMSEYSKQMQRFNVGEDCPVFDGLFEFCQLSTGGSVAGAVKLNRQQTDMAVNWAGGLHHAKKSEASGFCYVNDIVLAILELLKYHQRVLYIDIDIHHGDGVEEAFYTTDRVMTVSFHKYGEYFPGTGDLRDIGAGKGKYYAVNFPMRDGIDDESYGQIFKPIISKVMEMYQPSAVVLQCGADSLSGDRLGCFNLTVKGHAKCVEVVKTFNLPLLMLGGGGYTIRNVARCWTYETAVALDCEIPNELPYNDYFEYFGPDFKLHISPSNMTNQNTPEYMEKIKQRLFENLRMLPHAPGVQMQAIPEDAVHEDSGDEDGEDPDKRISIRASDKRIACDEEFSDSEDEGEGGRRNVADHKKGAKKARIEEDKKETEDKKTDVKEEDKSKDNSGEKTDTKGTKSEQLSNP
Sequence of Histone deacetylase 4 (P56524 whole entry): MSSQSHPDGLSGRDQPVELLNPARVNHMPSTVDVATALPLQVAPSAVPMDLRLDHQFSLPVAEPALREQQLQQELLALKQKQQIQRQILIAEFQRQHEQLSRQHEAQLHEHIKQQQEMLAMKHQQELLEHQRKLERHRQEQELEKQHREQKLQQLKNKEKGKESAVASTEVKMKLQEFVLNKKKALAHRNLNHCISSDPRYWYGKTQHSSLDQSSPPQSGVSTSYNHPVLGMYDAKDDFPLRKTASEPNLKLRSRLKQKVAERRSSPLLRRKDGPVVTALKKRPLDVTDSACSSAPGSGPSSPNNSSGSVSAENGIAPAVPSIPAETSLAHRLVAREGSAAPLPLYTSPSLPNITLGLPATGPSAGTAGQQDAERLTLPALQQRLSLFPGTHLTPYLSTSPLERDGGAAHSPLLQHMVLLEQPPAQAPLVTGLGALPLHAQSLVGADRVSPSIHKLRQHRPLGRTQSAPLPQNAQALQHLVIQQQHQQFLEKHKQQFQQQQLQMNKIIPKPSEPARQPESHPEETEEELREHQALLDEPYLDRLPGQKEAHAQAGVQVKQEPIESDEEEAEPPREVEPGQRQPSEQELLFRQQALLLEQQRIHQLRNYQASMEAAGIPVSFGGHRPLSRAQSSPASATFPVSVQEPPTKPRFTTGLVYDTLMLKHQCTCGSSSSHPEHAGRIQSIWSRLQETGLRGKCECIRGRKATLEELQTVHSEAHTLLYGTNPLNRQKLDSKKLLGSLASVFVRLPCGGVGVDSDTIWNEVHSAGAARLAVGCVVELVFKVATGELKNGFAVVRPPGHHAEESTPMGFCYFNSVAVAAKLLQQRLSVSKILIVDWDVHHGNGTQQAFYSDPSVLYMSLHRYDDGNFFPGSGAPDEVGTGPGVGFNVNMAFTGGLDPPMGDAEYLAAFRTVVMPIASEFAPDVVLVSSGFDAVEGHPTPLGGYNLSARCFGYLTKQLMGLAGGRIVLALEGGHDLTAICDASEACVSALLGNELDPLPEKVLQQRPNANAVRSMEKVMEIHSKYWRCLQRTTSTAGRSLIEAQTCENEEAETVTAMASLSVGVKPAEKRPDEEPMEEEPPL

IC50 (Histone deacetylase 1) [µM] | IC50 (Histone deacetylase 2) [µM] | IC50 (Histone deacetylase 4) [µM] | IC50 (Histone deacetylase 7) [µM] | IC50 (Histone deacetylase 8) [µM] | IC50 (CDK2/Cyclin A2) [µM] | IC50 (CDK6/cyclin D3) [µM] | inhibition [1] [%] | inhibition [2] [%] | inhibition [3] [%] | SMILES
> 100 | > 100 | > 100 | > 5 | > 5 | > 1 | > 1 | 4.5 | 0.8 | 23 | C#CCN1C(=O)/C(=C2\Nc3ccccc3\C2=N/OCCCC(=O)NO)c2ccccc21
> 5 | > 5 | > 5 | > 5 | > 5 | 0.119 | 0.0682 | 34.9 | 41.3 | 0.1 | O=C(O)CCCO/N=C1/C(=C2/C(=O)Nc3ccccc32)Nc2ccccc21

SMILES | IC50 (Histone deacetylase 1) [µM] | IC50 (Histone deacetylase 2) [µM] | IC50 (Histone deacetylase 4) [µM] | IC50 (Histone deacetylase 7) [µM] | IC50 (Histone deacetylase 8) [µM] | IC50 (CDK2/Cyclin A2) [µM] | IC50 (CDK6/cyclin D3) [µM] | inhibition [1] [%] | inhibition [2] [%] | inhibition [3] [%]
O=C(CCCO/N=C1/C(=C2/C(=O)Nc3ccccc32)Nc2ccccc21)NO | > 5 | > 5 | > 5 | > 5 | > 5 | 0.0609 | 0.0272 | 66.8 | 76.6 | 51
